From EP4458804A1, “METHOD FOR PRODUCING AN OBJECT, PHENALEN-1-ONE COMPOUND AND USE THEREOF” (TriOptoTec GmbH, priority 2023, dated 2024)

Experiments:
[1] = system: S. aureus; experiment: Bactericidal effect after leaching/washing stress B and C (Beispiel 18), modified ISO 22196; assay type: cell-based; conditions: TPU film, Rezeptur 1, 1 mM
From the text: (§1) Die Bestimmung der antimikrobiellen Aktivität erfolgte nach einer modifizierten Version der ISO 22196:2011-08 ("Messung von antibakterieller Aktivität auf Kunststoff- und anderen porenfreien Oberflächen", Ausgabedatum: 2011-08).
(§2) Bei der Testdurchführung wurde ein dünner Flüssigkeitsfilm, in dem die Bakterien enthalten sind (1,25 x 10^4 /cm^2), direkt auf die Probenkörper (3 x 3 cm) aufgebracht. Direkt nach Beimpfung wurden von der Nullprobe die Bakterien von den Probenkörperoberflächen mittels Ultraschall und Vortexen abgelöst und die Keimzahl (KBE (engl. CFU), Kolonie-bildende Einheit) bestimmt (t0-Wert).
(§3) Nach 4h wurden überlebende Bakterien von den Probenkörperoberflächen mittels Ultraschall und Vortexen abgelöst und die Keimzahl bestimmt (t4-Wert).
(§4) Im Unterschied zu der in der ISO 22196:2011-08 beschreibenen Methode wurde das Inokulum nicht mit einer Folie abgedeckt und die Inkubationszeit wurde von 24 auf 4 Stunden reduziert. Weiterhin wurden die Probenkörper der Proben 3 und 4 mit Licht der Intensität 20mW/cm2 für 10min belichtet, um eine biozide Wirkung nach Bestrahlung mit elektromagnetischer Strahlung zu bestimmen.
Um die Haltbarkeit des Photokatalysators innerhalb der Folie bzw. dessen Auswaschen gegen gängige Reinigungsmittel zu untersuchen, wurden damit Immersionstest in Wasser und 70% Isopropanol durchgeführt.
Die Folien wurden anschließend mit dem unter B) und C) beschrieben Belastungsverfahren mit den in den Tabellen gezeigten Medien behandelt und in ihrer Wirksamkeit vor/nach Belastung verglichen.

[2] = Two-component system (kit of parts): impregnation of TPU films, visual colouring and resistance to rubbing/washing (Beispiel 6a/6b); assay type: physicochemical; conditions: TPU Folien; 2K-System Beispiel 6a (Aceton/Isopropanol)
From the text: Um eine Mehrkomponenten-System bereitzustellen, bei dem vorzugsweise flüchtigere Hilfskomponenten, die gegebenenfalls regelmäßiger im Prozess ergänzt werden müssen, in einer separaten Komponente bereitgestellt werden können, wurde zunächst folgendes 2K-System getestet.
Grundkomponente (A): Eine Mischung aus 40,0% w/w Aceton, 30,0% w/w Isopropanol und […] w/w Wasser wurden homogen vermengt. Die Mischung war dicht verschlossen > 12 Monate bei Raumtemperatur lagerbar.
Zusatzkomponente (B): Eine Mischung aus 3,0% w/w Phenoxyethanol, 3,0% w/w EDTA und 0,1 bis 2,0 % Photokatalysator in Wasser wurden homogen verrührt. Die Mischung war dicht verschlossen in dunklen Flaschen > 6 Monate bei Raumtemperatur lagerbar.
Beide Lösungen wurden vor dem Prozess zu gleichen Teilen gemischt, gefolgt von einer 1:5 Verdünnung mit Wasser. Nach guter Durchmischung war die Lösung gebrauchsfertig.
Bei F-64a und F-73 war eine schwache Gelb- bzw.
Grundkomponente (A) enthielt eine Mischung aus 30,0% w/w Dimethylsuccinat, 33,0% w/w 1,2-Propandiol, 12,0% w/w Tween 20 und 25,0 % Wasser.
Zusatzkomponente (B) enthielt eine Mischung aus 2,0 Gew.-% Phenoxyethanol, 2,0 Gew.-% EDTA und 0,1 Gew.-% bis 1,6 Gew.-% Photokatalysator, jeweils bezogen auf das Gesamtgewicht der Zusatzkomponente (B), wobei die entsprechenden Bestandteile in Wasser gelöst wurden und anschließend homogen verrührt wurden.
Die Komponenten wurden vor Gebrauch im Verhältnis A zu B 2:1 gemischt, gefolgt von einer 1:1 Verdünnung mit Wasser. Nach guter Durchmischung war die Lösung gebrauchsfertig.

[3] = system: S. aureus; experiment: Bactericidal effect after tempering (Beispiel 19), modified ISO 22196; assay type: cell-based; conditions: TPU film, Rezeptur 1, 1 mM
From the text: as §1, §2, §3, §4
Weiterhin wurde die Belastbarkeit des Photokatalysators in der Folie mit zusätzlichen Tests wie Tempern bei 80°C und Dampfsterilisation bei 121°C untersucht. […]

[4] = system: S.enterica; experiment: Antibacterial activity of impregnated films, modified ISO 22196 with illumination (Beispiel 12); assay type: cell-based; conditions: TPU Folie, Rezeptur 1, 1 mM F-24b; Licht 20mW/cm2 für 10min; Gram-negativ
From the text: as §1, §2, §3, §4
(§5) Verwendet wurden TPU Folienstücke, die nach dem in Beispiel 4 beschriebenen Verfahren mit Rezeptur 1 behandelt wurden. Rezeptur 1 wurde hergestellt nach Beispiel 2. […] Der Test wurde in Anlehnung an ISO 22196 nach oben beschriebener Methode durchgeführt.

[5] = system: Acinetobacter pitii; experiment: as above; assay type: cell-based; conditions: TPU Folie, Rezeptur 1, 1 mM F-24b; Licht 20mW/cm2 für 10min; Gram-negativ
From the text: as §1, §2, §3, §4, §5

[6] = system: S.aureus ATCC 6538; experiment: Antibacterial activity of impregnated films, modified ISO 22196 with illumination (Beispiele 11-16, 25); assay type: cell-based; conditions: Beispiel 14; TPU film; Rezeptur 1 (nach Beispiel 1); 1 mM photocatalyst in impregnation solution; light 20mW/cm2 10min
[7] = Leaching stress test B following DIN EN 16105, nine immersion cycles (Beispiel 10 B); assay type: physicochemical; conditions: Immersion test B (DIN EN 16105), medium Wasser, plastic TPU, Rezeptur 1 nach Beispiel 1
Protocol: Der Test wurde in Anlehnung an die DIN EN 16105:2011-12 ("[…] zur Bestimmung der Freisetzung von Substanzen aus Beschichtungen in intermittierendem […] unter A) beschrieben erzeugt. Es wurde vollentsalztes Wasser mit einem pH-Wert von (6 ± 1) und einer Wassertemperatur von (22 ± 3) °C verwendet. Beim Test wurden jeweils neun Tauchzyklen durchgeführt. […] Die erforderliche Wassermenge (z. B. 250 mL pro 100 cm2) musste hinzugefügt werden. Für jedes Eintauchen wurde frisches deionisiertes Wasser verwendet. Jeder Probekörper wurde in […]. Die […] so […] von Wasser mit der untersuchten Oberfläche möglich war. Der Tauchbehälter wurde dabei abgedeckt, um ein Verdunsten von Wasser während des Eintauchens zu […]. Der Überschuss wird direkt im UV-VIS-Spektrometer vermessen, vor dem ersten Immersionszyklus und nach Zyklen 1, 3, 5, 7 und 9. Die Ausgangswerte (Absorptionsmaximum des jeweiligen […] dabei zwischen 0,05 A.U. und 1,00 A.U. liegen. Die […] Immersionstest B

[8] = Washability test C following DIN EN ISO 11998, 200 sponge cycles with disinfectant solution (Beispiel 10 C); assay type: physicochemical; conditions: TPU, Rezeptur 1 nach Beispiel 2
Protocol: Der Test wurde in Anlehnung an die DIN EN ISO 11998:2006-10 ("Beschichtungsstoffe - Bestimmung der Nassabriebbeständigkeit und der Reinigungsfähigkeit von Beschichtungen (ISO 11998:2006)"; Ausgabedatum: 2006-10) durchgeführt, um das Auswaschen der verschiedenen Farbstoffe in den Kunststofffolien nach mechanischer Belastung zu beurteilen.
Hierzu wurden 200 Zyklen mit einem Anpressdruck von 135g angewendet. Es wurde ein Schwamm mit 4,0 mL Probelösung vorbereitet, die zu testende Folie eingespannt und der Schwamm aufgebracht. 200 Zyklen entsprachen dabei circa 5 min Kontaktzeit des Schwamms und der Oberfläche. Nach dem Test wurde die Folie entnommen und im UV-VIS Spektrometer vermessen, um die ausgewaschene Menge an Farbstoff zu bestimmen.
Der jeweils gemessene Wert vor dem Test und nach Abschluss der 200 Zyklen wurde verglichen und daraus ein prozentualer Verlust ermittelt.
Vorbereitet wurde die Folie nach Beispiel 2. Die zu verwendete Probelösung entsprach 5 Gew.-% Incidin Plus Lösung, bezogen auf das Gesamtgewicht der Probelösung.
Incidin Pro, der Firma ECOLAB Deutschland GmbH (Monheim), ist ein flüssiges Konzentrat, das sich zur Reinigung und Desinfektion medizinischer Geräte und Flächen in Einrichtungen des Gesundheitswesens angewendet wird.
Der Test ermittelt somit den nach wiederholtem flächigem Abwischen mit einem Desinfektionsmittel aus einer behandelten Oberfläche ausgetragenen Photokatalysator.

CC(C)(O)c1cc[n+](CC2=Cc3cccc4cccc(c34)C2=O)cc1 [F-24b]
Log10 Reduktion Hauptprobe ([1]; After Auswaschen nach DIN EN 16105, procedure B), Wasser (dest.)): 1,9 ± 0,5 log10
Log10 Reduktion Hauptprobe ([1]; After Screening Test - Immersion, procedure A), 70% Isopropanol): 1,9 ± 0,6 log10
Log10 Reduktion Hauptprobe ([1]; After Screening Test - Immersion, procedure A), Wasser (dest.)): 3,3 ± 0,7 log10
Log10 Reduktion Hauptprobe ([1]; After Washability nach DIN EN ISO 11998, procedure C), cleaner Neutraldesinfizierend): 4,5 ± 0,6 log10
Log10 Reduktion Hauptprobe ([1]; After Washability nach DIN EN ISO 11998, procedure C), cleaner Sauer-oxidierend): 4,8 ± 0,3 log10
Imprägnierung / Färbung der Folie [2]: mit den vorherigen Daten vergleichbar
Log10 Reduktion Hauptprobe ([3]; After 1 Woche 80°C Tempern): 3,0 ± 1,1 log10
Log10 Reduktion Hauptprobe ([3]; After 1 h 80 °C Tempern): 4,1 ± 0,1 log10
Log10 Reduktion Hauptprobe [4]: 4,2 ± 0,6 log10
Log10 Reduktion Hauptprobe [5]: 3,0 ± 0,7 log10
Log10 Reduktion Hauptprobe [6]: 4,0 ± 0,3 log10
Abs. nach Auswaschen [7]: 0,006
Berechneter Verlust in % [7]: 4,9%
Abs. vor Auswaschen ([8]; Washability test C (DIN EN ISO 11998), film before test): 0,121
Berechneter Verlust in % ([8]; Washability test C, 200 sponge cycles, 5 Gew.-% Incidin Plus Lösung): 1,7%
Abs. nach Auswaschen ([8]; Washability test C, film after 200 sponge cycles, 135g, 5 Gew.-% Incidin Plus Lösung): 0,119
